From US8461328B2, “Tricyclic heterocyclic compounds, compositions and methods of use thereof” (Genentech, Inc., priority 2010, dated 2013)
pKi: −log10 of the molar value.

Columns and labels:
Format in all cases: biochemical
TYK2 = target: T1, TYK2 (Homo sapiens, UniProt P29597); assay: TYK2 inhibition (Table 4)
T1 construct: made in house; host or cells: SF9 insect cells (baculovirus)
T1 sequence (P29597 873-1187): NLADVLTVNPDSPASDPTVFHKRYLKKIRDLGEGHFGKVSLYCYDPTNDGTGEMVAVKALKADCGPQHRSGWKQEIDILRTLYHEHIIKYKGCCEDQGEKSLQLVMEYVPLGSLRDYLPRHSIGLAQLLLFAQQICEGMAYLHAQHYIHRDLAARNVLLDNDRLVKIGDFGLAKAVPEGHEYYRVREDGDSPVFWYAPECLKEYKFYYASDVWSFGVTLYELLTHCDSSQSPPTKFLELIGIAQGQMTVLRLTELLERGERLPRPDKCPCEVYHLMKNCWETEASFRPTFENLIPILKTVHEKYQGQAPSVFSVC

JAK1 = target: T2, JAK1 (Homo sapiens, UniProt P23458); assay: JAK1 inhibition (Table 4); conditions: read-out: JAK1 Ki
T2 construct: made in house; host or cells: SF9 insect cells (baculovirus)

JAK3 = target: T3, JAK3 (Homo sapiens, UniProt P52333); assay: JAK3 inhibition (Table 4); conditions: read-out: JAK3 Ki
T3 construct: made in house; host or cells: SF9 insect cells (baculovirus)

JAK2 = target: T4, JAK2 (Homo sapiens, UniProt O60674); assay: JAK2 inhibition (Table 4); conditions: read-out: JAK2 Ki
T4 construct: made in house; host or cells: SF9 insect cells (baculovirus)
T4 sequence (O60674 812-1132): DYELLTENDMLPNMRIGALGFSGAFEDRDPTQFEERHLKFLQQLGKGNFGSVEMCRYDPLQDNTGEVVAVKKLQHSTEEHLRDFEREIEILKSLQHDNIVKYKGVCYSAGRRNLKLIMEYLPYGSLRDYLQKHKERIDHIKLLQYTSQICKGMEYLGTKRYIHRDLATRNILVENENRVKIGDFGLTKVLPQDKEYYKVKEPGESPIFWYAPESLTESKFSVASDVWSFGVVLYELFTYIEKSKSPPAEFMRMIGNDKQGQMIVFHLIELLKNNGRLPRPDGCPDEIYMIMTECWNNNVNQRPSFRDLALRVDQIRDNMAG

T3 sequence (P52333 783-1124): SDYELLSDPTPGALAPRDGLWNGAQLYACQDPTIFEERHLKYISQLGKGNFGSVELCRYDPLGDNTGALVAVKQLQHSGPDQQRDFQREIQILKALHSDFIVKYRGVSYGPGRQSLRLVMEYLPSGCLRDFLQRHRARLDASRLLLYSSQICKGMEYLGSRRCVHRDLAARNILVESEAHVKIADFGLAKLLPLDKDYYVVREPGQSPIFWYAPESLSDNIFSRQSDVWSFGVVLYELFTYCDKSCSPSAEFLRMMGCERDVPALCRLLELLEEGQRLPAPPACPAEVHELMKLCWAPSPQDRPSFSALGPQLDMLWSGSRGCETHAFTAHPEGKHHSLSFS
T2 sequence (P23458 852-1154): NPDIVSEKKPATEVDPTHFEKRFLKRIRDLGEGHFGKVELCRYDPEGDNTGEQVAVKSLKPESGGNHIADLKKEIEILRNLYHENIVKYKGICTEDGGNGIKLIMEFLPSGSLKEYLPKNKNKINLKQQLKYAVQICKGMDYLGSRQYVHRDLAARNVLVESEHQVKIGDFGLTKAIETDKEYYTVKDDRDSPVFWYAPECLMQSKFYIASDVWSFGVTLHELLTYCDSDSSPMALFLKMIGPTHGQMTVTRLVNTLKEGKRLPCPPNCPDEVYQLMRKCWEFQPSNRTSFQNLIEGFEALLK

SMILES | pKi (TYK2) | pKi (JAK1) | pKi (JAK3) | pKi (JAK2)
CN(C)c1nc2cnc3[nH]ccc3c2n1C1CCN(CCC#N)CC1 [Example 656, 3-[4-(2-Dimethylamino-6H-1,2,3,5,6-tetraaza-as-indacen-1-yl)-piperidin-1-yl]-propionitrile] | 6.38 | 7.83 | 7.42 | 7.11
C[C@@H](O)c1nc2cnc3[nH]ccc3c2n1[C@@H]1CCCO1 [Example 659, (R)-1-[(S)-1-(Tetrahydro-furan-2-yl)-1,6-dihydro-1,2,3,5,6-tetraaza-as-indacen-2-yl]-ethanol] | 6.51 | 7.51 | 6.76 | 6.40
C[C@@H](O)c1nc2cnc3[nH]ccc3c2n1[C@H]1CCCO1 [Example 660, (R)-1-[(R)-1-(Tetrahydro-furan-2-yl)-1,6-dihydro-1,2,3,5,6-tetraaza-as-indacen-2-yl]-ethanol] | 6.19 | 6.48 | 5.98 | 5.91
C[C@H](O)c1nc2cnc3[nH]ccc3c2n1[C@@H]1CCCN(C(=O)CC#N)C1 [Example 662, 3-{(R)-3-[2-((S)-1-Hydroxy-ethyl)-6H-1,2,3,5,6-tetraaza-as-indacen-1-yl]-piperidin-1-yl}-3-oxo-propionitrile] | 6.06 | 7.58 | 6.07 | 6.51
c1cc2c(ncc3nc([C@H]4CCCN4)n([C@H]4CCCOC4)c32)[nH]1 [Example 667, 2-(R)-Pyrrolidin-2-yl-1-(S)-tetrahydro-pyran-3-yl-1,6-dihydro-1,2,3,5,6-tetraaza-as-indacene] | 6.28 | 6.94 | 6.05 | 6.33
COC(=O)N1CCCC(n2c([C@@H](C)O)nc3cnc4[nH]ccc4c32)C1 (stereo partly drawn) [Example 670, (R)-3-[2-((R)-1-Hydroxy-ethyl)-6H-1,2,3,5,6-tetraaza-as-indacen-1-yl]-piperidine-1-carboxylic acid methyl ester] | 5.82 | 6.40 | 5.66 | 5.76
CCN1CC[C@@H](n2c(CCNS(=O)(=O)CC)nc3cnc4[nH]ccc4c32)[C@@H](F)C1 [Example 681, Ethanesulfonic acid {2-[1-((3S,4R)-1-ethyl-3-fluoro-piperidin-4-yl)-1,6-dihydro-1,2,3,5,6-tetraaza-as-indacen-2-yl]-ethyl}-amide] | 6.54 | 8.38 | 6.88 | 7.49
C[C@@H](O)c1nc2cnc3[nH]ccc3c2n1C1CCN(Cc2ncccc2F)CC1 [Example 682, (R)-1-{1-[1-(3-Fluoro-pyridin-2-ylmethyl)-piperidin-4-yl]-1,6-dihydro-1,2,3,5,6-tetraaza-as-indacen-2-yl}-ethanol] | 6.41 | 8.06 | 7.51 | 6.99
CC(C)(C)COCc1nc2cnc3[nH]ccc3c2n1C1CCN(CCC#N)CC1 [Example 683, 3-{4-[2-(2,2-Dimethyl-propoxymethyl)-6H-1,2,3,5,6-tetraaza-as-indacen-1-yl]-piperidin-1-yl}-propionitrile] | 5.76 | 6.79 | 6.51 | 6.59

Now those with a higher pKi (TYK2), led by results:

pKi (TYK2) | pKi (JAK1) | pKi (JAK3) | pKi (JAK2) | SMILES
7.28 | 7.98 | 6.12 | 6.95 | C[C@@H](O)c1nc2cnc3[nH]ccc3c2n1[C@H]1CC[C@H](S(C)(=O)=O)CC1 [Example 650, Trans (R)-1-[1-(4-methanesulfonyl-cyclohexyl)-1,6-dihydro-1,2,3,5,6-tetraaza-as-indacen-2-yl]-ethanol]
7.46 | 8.01 | 6.37 | 7.37 | CS(=O)(=O)[C@H]1CC[C@H](n2c(CO)nc3cnc4[nH]ccc4c32)CC1 [Example 651, Trans[1-(4-Methanesulfonyl-cyclohexyl)-1,6-dihydro-1,2,3,5,6-tetraaza-as-indacen-2-yl]-methanol]
8.43 | 9.09 | 7.41 | 8.36 | CS(=O)(=O)CC[C@H]1CC[C@H](n2c(CO)nc3cnc4[nH]ccc4c32)CC1 [Example 652, Trans {1-[4-(2-methanesulfonyl-ethyl)-cyclohexyl]-1,6-dihydro-1,2,3,5,6-tetraaza-as-indacen-2-yl}-methanol]
8.28 | 9.06 | 8.88 | 7.61 | C[C@@H](O)c1nc2cnc3[nH]ccc3c2n1[C@H]1CC[C@@H](n2cncn2)CC1 [Example 653, Cis (R)-1-[1-(4-[1,2,4]triazol-1-yl-cyclohexyl)-1,6-dihydro-1,2,3,5,6-tetraaza-as-indacen-2-yl]-ethanol]
8.33 | 9.34 | 7.80 | 8.97 | COc1nc2cnc3[nH]ccc3c2n1C1CCN(CCC#N)CC1 [Example 655, 3-[4-(2-Methoxy-6H-1,2,3,5,6-tetraaza-as-indacen-1-yl)-piperidin-1-yl]-propionitrile]
7.17 | 8.45 | 7.47 | 7.87 | CNc1nc2cnc3[nH]ccc3c2n1C1CCN(CC(F)(F)F)CC1 [Example 658, Methyl-{1-[1-(2,2,2-trifluoro-ethyl)-piperidin-4-yl]-1,6-dihydro-1,2,3,5,6-tetraaza-as-indacen-2-yl}-amine]
7.33 | 8.40 | 7.26 | 7.18 | C[C@@H](O)c1nc2cnc3[nH]ccc3c2n1[C@@H]1CCCN(C(=O)CC#N)C1 [Example 661, 3-{(R)-3-[2-((R)-1-Hydroxy-ethyl)-6H-1,2,3,5,6-tetraaza-as-indacen-1-yl]-piperidin-1-yl}-3-oxo-propionitrile]
7.23 | 7.20 | 6.95 | 7.00 | CC(O)c1nc2cnc3[nH]ccc3c2n1C1CCCN(CCF)C1 [Example 664, (R)-1-{1-[(R)-1-(2-Fluoro-ethyl)-piperidin-3-yl]-1,6-dihydro-1,2,3,5,6-tetraaza-as-indacen-2-yl}-ethanol]
8.75 | 8.92 | 7.94 | 8.16 | OCc1nc2cnc3[nH]ccc3c2n1C1CCCCC1 [Example 675, (1-Cyclohexyl-1,6-dihydro-1,2,3,5,6-tetraaza-as-indacen-2-yl)-methanol]
7.65 | 8.87 | 7.40 | 8.10 | N#CCC(=O)N1CCCC(n2c(CC3CC3)nc3cnc4[nH]ccc4c32)C1 (stereo not drawn) [Example 676, 3-[3-(2-Cyclopropylmethyl-6H-1,2,3,5,6-tetraaza-as-indacen-1-yl)-piperidin-1-yl]-3-oxo-propionitrile]
7.56 | 8.61 | 7.48 | 7.53 | CC(=O)NCCc1nc2cnc3[nH]ccc3c2n1C1CCCCC1 [Example 677, N-[2-(1-Cyclohexyl-1,6-dihydro-1,2,3,5,6-tetraaza-as-indacen-2-yl)-ethyl]-acetamide]
6.56 | 8.40 | 7.63 | 7.50 | CCOC(=O)NCCc1nc2cnc3[nH]ccc3c2n1C1CCN(CC)CC1(F)F (stereo not drawn) [Example 678, {2-[1-(1-Ethyl-3,3-difluoro-piperidin-4-yl)-1,6-dihydro-1,2,3,5,6-tetraaza-as-indacen-2-yl]-ethyl}-carbamic acid ethyl ester]
